Test results as given in patent US8034804B2 (N.V. Organon, priority 2001, dated 2011).

Assays:
Mice = assay: Inhibition of amphetamine-induced hyperlocomotion; assay type: in vivo, mouse; settings: drug sc 30 minutes before 1.5 mg/kg d-amphetamine sulphate sc, locomotor activity measured for 60 minutes
Procedure: Mice were injected sc with drug treatment or vehicle control. 30 Minutes later mice were injected sc with 1.5 mg/kg d-amphetamine sulphate or saline and immediately placed in infra red locomotor boxes where locomotor activity (long duration beam breaks of two adjacent beams) and stereotypic behaviour (repetitive short-duration beam breaks) were measured for a period of 60 minutes. The experiment was analysed using a 3-Way ANOVA with experimental session, infra red locomotor boxes and treatment as factors, and in the case of treatment, significant effects were followed up using a Tukey (HSD) test.

AMPA receptor = assay: Patch clamp whole cell electrophysiology: glutamate-evoked steady state current in cultured hippocampal neurons; assay type: cell-based; settings: 10 μM compound in extracellular solution; 0.5 mM glutamate; rat hippocampal neurons voltage clamped at −60 mV
Text: The (pyrido/thieno)-[f]-oxazepin-5-one derivatives of the invention are AMPA receptor positive modulators, as can be determined by an increase in steady state current induced by application of glutamate in a conventional whole cell patch clamp method when a (pyrido/thieno)-[f]-oxazepin-5-one of the invention is present (see Example 10 and Table I). The compounds may be used in the treatment of neurological and psychiatric diseases where an enhancement of synaptic responses mediated by AMPA receptors is required, such as neurodegenerative disorders, cognitive or memory dysfunction, memory and learning disorders such as can result from ageing, attention disorder, trauma, stroke, epilepsy, Alzheimer's disease, depression, schizophrenia, psychotic disorders, sexual dysfunctions, autism, or a disorder or disease resulting from neurotic agents or substance abuse, and alcohol intoxication.
Hippocampal neuronal cultures were prepared from embryonic or 1-3 day old Sprague-Dawley rats which were decapitated and the heads immediately placed in ice cold HBS (HEPES Buffered Solution: 130 mM NaCl, 5.4 mM KCl, 10 mM HEPES, 1.0 mM MgCl2, 1.8 CaCl2, 25 mM glucose, adjusted to pH 7.4). The whole brain was excised and placed on pre-sterilised filter paper, soaked in HBS and the cerebellum was removed. The brain was chopped and an enzyme solution (0.5 mg/ml protease X and 0.5 mg/ml protease in HBS) was added and subsequently left for 40 minutes at room temperature to digest before trituration. Cells were resuspended and then counted to give a final concentration of 1.5×10^6 per ml. Cells were aliquoted onto poly-D-lysine- and Matrigel®-treated coverslips and left to incubate at 37° C. for 1-2 hours. When incubation was complete, 1 ml of growth medium was added to each well containing a coverslip and the cells were returned to the incubator. After 3-5 days the mitotic inhibitor cytosine arabinoside (5 μM) was added and the cells returned to the incubator until required.
The whole cell configuration of the patch clamp technique (Hamill et al., Pflügers Arch. 1981, 39, 85-100) was used to measure glutamate-evoked currents from postnatal hippocampal neurons maintained in culture for 4-7 days. A glass coverslip containing the culture was transferred to the recording chamber (Warner Instrument Corp., Hamden, Conn.) mounted on the stage of an inverted microscope (Nikon, Kingston, UK). The recording chamber contained 1-2 ml extracellular solution (145 mM NaCl, 5.4 mM KCl, 10 mM HEPES, 0.8 mM MgCl2, 1.8 CaCl2, 10 mM glucose and 30 mM sucrose, adjusted to pH 7.4 with 1 M NaOH) and was constantly perfused at a rate of 1 ml/min. Recordings were performed at room temperature (20-22° C.) using an Axopatch 200B amplifier (Axon Instruments Ltd., Foster City, Calif.). Data acquisition and analysis was performed using Signal software (Cambridge Electronic Design Ltd., Cambridge, UK). Pipettes were manufactured from GC120F-10 glass (Harvard Apparatus, Edenbridge UK) using a model P-87 electrode puller (Sutter Instruments Co., Novarto, Calif.). The patch electrodes had typical resistances of between 3-5 MΩ when filled with intracellular solution (140 mM potassium gluconate, 20 mM HEPES, 1.1 mM EGTA, 5 mM phosphocreatine, 3 mM ATP, 0.3 mM GTP, 0.1 mM CaCl2, 5 mM MgCl2, adjusted to pH 7.4 with 1 M KOH).
Cells were voltage clamped at a holding potential of −60 mV and glutamate (0.5 mM) was applied using a 12 channel semi-rapid drug application device (DAD-12. Digitimer Ltd., Welwyn Garden city, UK). The agonist glutamate was applied for 1 s every 30 s. […] Between applications saline flowed to clear any dead volume in the system. For each application steady-state currents were plotted from the difference in baseline and steady state current and averaged over 300 ms.
Two solutions of the compound in extracellular solution were made up, one with glutamate and one without. […]

Rats = assay: Differential reinforcement of low rates of responding, 72 seconds (DRL72); assay type: in vivo, rat; settings: intraperitoneal route 30 minutes before 60 minute test session
Procedure: Rats are pretrained in a standard operant chamber to perform a DRL72 procedure according to Andrews et al (Andrews J S, Jansen J H M, Linders S, Princen A, Drinkenburg WHIM, Coenders C J H and Vossen J H M (1994). Effects of imipramine and mirtazapine on operant performance in rats. Drug Development Research, 32, 58-66). The test session lasts for 60 minutes with no limit to the number of trials. Each trial begins with the stimulus light on above the active lever. A response on the lever only results in delivery of a pellet if 72 seconds has elapsed. A response on the lever before 72 seconds has elapsed resets the timer and is not rewarded. The number of pellets earned and the number of lever presses is recorded and used to calculate an efficiency score. Test compounds are administered via the intraperitoneal route 30 minutes before the start of the test session. Antidepressants increase the number of pellets earned and decrease the number of lever presses.

| Compound | Inhibition of amphetamine induced hyperlocomotion (Mice) | % Increase in steady state current at 10 μM (AMPA receptor) [%] | DRL72 operant performance (pellets earned, lever presses): antidepressant like profile (Rats) |
| --- | --- | --- | --- |
| O=C1c2sccc2OC[C@@H]2CCCN12 [Example 1] | inhibited amphetamine induced hyperlocomotion | 32 |  |
| O=C1c2ccc(C(F)(F)F)nc2OC[C@@H]2CCCN12 [Example 2B, (S)-8-trifluoromethyl-2,3,11,11a-tetrahydro-1H,5H-pyrrolo[2,1-c]pyrido[3,2-f][1,4]-oxazepine-5-one] |  | 21 |  |
| O=C1c2ccc(C(F)(F)F)nc2OC[C@H]2CCCN12 [Example 2C, (R)-8-trifluoromethyl-2,3,11,11a-tetrahydro-1H,5H-pyrrolo[2,1-c]pyrido[3,2-f][1,4]-oxazepine-5-one] |  | 19 |  |
| Cc1ccc2c(n1)OCC1CCCN1C2=O.Cl [Example 3, (S)-8-Methyl-2,3,11,11a-tetrahydro-1H,5H-pyrrolo[2,1-c]pyrido[3,2-f][1,4]oxazepine-5-one Hydrochloride Salt] |  | 12 |  |
| O=C1c2ccc(Cl)nc2OC[C@@H]2CCCN12 [Example 4A, (S)-8-Chloro-2,3,11,11a-tetrahydro-1H,5H-pyrrolo[2,1-c]pyrido[3,2-f][1,4]oxazepine-5-one] |  | 16 |  |
| O=C1c2ccc(Cl)nc2OC[C@H]2CCCN12 [Example 4B, (R)-8-Chloro-2,3,11,11a-tetrahydro-1H,5H-pyrrolo[2,1-c]pyrido[3,2-f][1,4]oxazepine-5-one] |  | 29 |  |
| O=C1c2cc(Cl)sc2OC[C@@H]2CCCN12 [Example 5, (S)-7-Chloro-2,3,10,10a-tetrahydro-1H,5H-pyrrolo[2,1-c]thieno[3,2-f][1,4]oxazepine-5-one] |  | 16 |  |
| O=C1c2cc(Cl)sc2OC[C@H]2CCCN12 [Example 6A, (R)-7-Chloro-2,3,10,10a-tetrahydro-1H,5H-pyrrolo[2,1-c]thieno[3,2-f][1,4]oxazepine-5-one] |  | 20 |  |
| (+)-6,6a,7,8,9,10-hexahydro-12H-pyrido[2,1-c]pyrido[3,2-f][1,4]oxazepine-12-one [Example 4D] |  | 13 |  |
| (S)-2,3,11,11a-tetrahydro-1H,5H-pyrrolo[2,1-c]pyrido[3,2-f][1,4]oxazepine-5-one | inhibited amphetamine induced hyperlocomotion | 22 | antidepressant like profile |
| (S)-8-Methoxy-2,3,11,11a-tetrahydro-1H,5H-pyrrolo[2,1-c]Pyrido[3,2-f][1,4]oxazepine-5-one [Example 7] |  | 22 |  |
